Literature values as cited in patent publication US20100221356A1, “PHARMACEUTICAL COMPOSITION FOR ONCE A DAY ADMINISTRATION OF TROSPIUM CHLORIDE” (SUPERNUS PHARMACEUTICALS, INC., priority 2003, published 2010).

Experiments:
[1] = water
[2] = 40 mg immediate release dose once daily compared to 20 mg given twice daily

Compound: O=C(O[C@H]1C[C@H]2CC[C@@H](C1)[N+]21CCCC1)C(O)(c1ccccc1)c1ccccc1 [Trospium chloride]
- saturation solubility [1]: 500 mg/mL
- oral bioavailability (oral): approximately 10%
- oral bioavailability with the intake of high-fat food (oral, high-fat food): significantly reduced
- time to maximum blood level (orally administered): 5 to 6 h
- overall incidence of adverse events [2]: higher overall incidence of adverse events
